Results from patent EP0327492A1, “Herbicidally and plantgrowth regulatory active quinoline and pyrindine compounds” (CIBA-GEIGY AG, priority 1988, dated 1989).

How the values were obtained:
Assay type in all cases: in vivo
Alopecurus myos. [1] = assay: Post-emergent herbicidal action, contact herbicide (B.3); conditions: 500 bis 2000 [g/ha], 15 days after treatment
Procedure: (§1) Im Gewächshaus wird unmittelbar nach der Einsaat der Versuchspflanzen in Saatschalen die Erdoberfläche mit einer wässrigen Dispersion der Wirkstoffe, erhalten aus einem 25 %igen Emulsionskonzentrat behandelt. Es werden Konzentrationen von 2000-500 g Wirksubstanz/Hektar angewendet. Die Saatschalen werden im Gewächshaus bei 22-25° C und 50-70 % relativer Luftfeuchtigkeit gehalten und der Versuch nach 3 Wochen ausgewertet und die Resultate nach folgender Notenskala ausgewertet. • 1 Pflanze hat nicht gekeimt oder ist eingegangen • 2-3 sehr starke Schäden • 4 starke Schäden • 5 mittlere Schäden, die Pflanzen sind verkümmert • 6 Schäden, die Pflanze kann regenerieren • 7-8 leichte Schäden • 9 normales Wachstum, wie das unbehandelter Pflanzen
(§2) Boniturnoten von 1 bis 4 (insbesondere von 1 bis 3) weisen auf eine gute bis sehr gute Herbizidwirkung hin. Boniturnoten von 6 bis 9 (insbesondere 7 bis 9) weisen auf eine gute Toleranz (insbesondere bei Kulturpflanzen) hin.
(§3) Eine Anzahl Unkräuter, sowohl monokotyle wie dikotyle, werden nach dem Auflaufen (im 4- bis 6-Blattstadium) mit einer wässrigen Wirkstoffdispersion in einer Dosierung von 2000-500 g Wirksubstanz pro Hektar auf die Pflanzen gespritzt und diese bei 24°-26°C und 45-60 % relativer Luftfeuchtigkeit gehalten. 15 Tage nach der Behandlung wird der Versuch nach dem in Beispiel B.2. gegebenen Massstab bewertet.

Chenopodium Sp. [2] = assay: as above; conditions: 500 bis 2000 [g/ha], 15 days after treatment
Procedure: as §1, §2, §3

Galium aparine [3] = assay: as above; conditions: 500 bis 2000 [g/ha], 15 days after treatment
Procedure: as §1, §2, §3

Avena fatua [4] = assay: as above; conditions: 500 bis 2000 [g/ha], 15 days after treatment
Procedure: as §1, §2, §3

Digitaria sang. [5] = assay: as above; conditions: 500 bis 2000 [g/ha], 15 days after treatment
Procedure: as §1, §2, §3

Xanthium Sp. = assay: as above; conditions: 500 bis 2000 [g/ha], 15 days after treatment
Procedure: as §1, §2, §3

Echinochloa crus galli [6] = assay: as above; conditions: 500 bis 2000 [g/ha], 15 days after treatment
Procedure: as §1, §2, §3

Stellaria [7] = assay: as above; conditions: 500 bis 2000 [g/ha], 15 days after treatment
Procedure: as §1, §2, §3

Sorghum halep. [8] = assay: as above; conditions: 500 bis 2000 [g/ha], 15 days after treatment
Procedure: as §1, §2, §3

Sinapis [9] = assay: as above; conditions: 500 bis 2000 [g/ha], 15 days after treatment
Procedure: as §1, §2, §3

Abutilon [10] = assay: as above; conditions: 500 bis 2000 [g/ha], 15 days after treatment
Procedure: as §1, §2, §3

Amaranthus ret. [11] = assay: as above; conditions: 500 bis 2000 [g/ha], 15 days after treatment
Procedure: as §1, §2, §3

Chrysanthe. leuc. [12] = assay: as above; conditions: 500 bis 2000 [g/ha], 15 days after treatment
Procedure: as §1, §2, §3

Solanum nigrum [13] = assay: as above; conditions: 500 bis 2000 [g/ha], 15 days after treatment
Procedure: as §1, §2, §3

Veronica Sp. [14] = assay: as above; conditions: 500 bis 2000 [g/ha], 15 days after treatment
Procedure: as §1, §2, §3

Bromus tectorum [15] = assay: as above; conditions: 500 bis 2000 [g/ha], 15 days after treatment
Procedure: as §1, §2, §3

Lolium perenne [16] = assay: as above; conditions: 500 bis 2000 [g/ha], 15 days after treatment
Procedure: as §1, §2, §3

Untersaaten in Mais = assay: Pre-post selectivity: growth inhibition of undersown grasses (post-emergent) versus maize (pre-emergent)
Description: Verbindungen der Formel I zeigen in vorteilhafter Weise eine "pre-post-Selektivität" bei verscheidenen Gräsern in Maiskulturen.
Die wuchshemmende Wirkung in Gräsern ist in postemergenter Applikation stark ausgeprägt, während bei gleichzeitiger Preemergenter Applikation Maispflanzen in ihrem Wuchs nur geringfügig gehemmt werden. Derartige "pre-post-Selektivitäten" erlauben somit die Aussaat von Mais in Gräsern. Dabei soll der Zeitpunkt für die Applikation der Aktivsubstanz der Formel so gewählt werden, dass die Aktivsubstanz postemergent für die Gräser ober preemergent für den Mais angewendet wird. In den ersten Wochen ist der Zuwachs der Gräser so stark gehemmt, dass die Maispflanze sich ungehindert entfalten kann.
Eine Mischung von Gräsern (z.B. Poa, Festuca, Lolium, Bromus, Cynosurus) werden in 15 cm - Kunststofftöpfen mit steriler Landerde angesät und im Gewächshaus bei einer Tagestemperatur von 21°C und einer Nachttemperatur von 17°C angezogen. Die Beleuchtungsdauer beträgt 13,5 Stunden/Tag bei einer Lichtintensität von mind. 7000 Lux. Nach dem Ablauf werden die Pflanzen wöchentlich auf ca. 6 cm Höhe zurückgeschnitten. Ca. 42 Tage nach der Saat und 1 Tag nach dem letzten Schnitt erfolgt die Applikation mit 60-500 g Wirkstoff/ha als wässrige Spritzbrühe. Die Wasseraufwandmenge ist ca. 500 I/ha.
20 Tage nach der Behandlung wird der Versuch ausgewertet. Hierbei wird die Höhe des Neuzuwachses gemessen und in % Hemmung zum Durchschnitt der unbehandelten Kontrollen dargestellt. Die nekrotischen Schäden sind in % zur gesamten Blattfläche aufgeführt.
Mais der Sorte Blizzard G188 werden in 15 cm - Kunststofftöpfen mit steriler gesiebter Landerde angesät und im Gewächshaus bei einer Tagestemperatur von 22°C und einer Nachttemperatur von 19°C aufgestellt. Die Beleuchtungsdauer beträgt mindestens 13,5 Stunden/Tag bei einer Lichtintensität von mindestens 7000 Lux. 1 Tag nach der Saat erfolgt die Applikation mit 60-500 g Wirkstoff/ha, in der Regel 25 %ig formuliert und in wässriger Spritzbrühe. Die Wasseraufwandmenge ist ca. 200 I/ha.
16 Tage nach der Behandlung wird der Versuch ausgewertet. […]

Alopecurus myos. [17] = assay: Pre-emergent herbicidal action (B.2); conditions: 500 bis 2000 [g/ha], evaluated after 3 weeks
Procedure: as §1, §2

Chenopodium Sp. [18] = assay: Pre-emergent herbicidal action (B.2); conditions: 500 bis 2000 [g/ha], evaluated after 3 weeks
Procedure: as §1, §2

Galium aparine [19] = assay: Pre-emergent herbicidal action (B.2); conditions: 500 bis 2000 [g/ha], evaluated after 3 weeks
Procedure: as §1, §2

Ipomoea = assay: Pre-emergent herbicidal action (B.2); conditions: 500 bis 2000 [g/ha], evaluated after 3 weeks
Procedure: as §1, §2

Avena fatua [20] = assay: Pre-emergent herbicidal action (B.2); conditions: 500 bis 2000 [g/ha], evaluated after 3 weeks
Procedure: as §1, §2

Digitaria sang. [21] = assay: Pre-emergent herbicidal action (B.2); conditions: 500 bis 2000 [g/ha], evaluated after 3 weeks
Procedure: as §1, §2

Echinochloa crus galli [22] = assay: Pre-emergent herbicidal action (B.2); conditions: 500 bis 2000 [g/ha], evaluated after 3 weeks
Procedure: as §1, §2

Stellaria [23] = assay: Pre-emergent herbicidal action (B.2); conditions: 500 bis 2000 [g/ha], evaluated after 3 weeks
Procedure: as §1, §2

Sorghum halep. [24] = assay: Pre-emergent herbicidal action (B.2); conditions: 500 bis 2000 [g/ha], evaluated after 3 weeks
Procedure: as §1, §2

Sinapis [25] = assay: Pre-emergent herbicidal action (B.2); conditions: 500 bis 2000 [g/ha], evaluated after 3 weeks
Procedure: as §1, §2

Abutilon [26] = assay: Pre-emergent herbicidal action (B.2); conditions: 500 bis 2000 [g/ha], evaluated after 3 weeks
Procedure: as §1, §2

Amaranthus ret. [27] = assay: Pre-emergent herbicidal action (B.2); conditions: 500 bis 2000 [g/ha], evaluated after 3 weeks
Procedure: as §1, §2

Chrysanthe. leuc. [28] = assay: Pre-emergent herbicidal action (B.2); conditions: 500 bis 2000 [g/ha], evaluated after 3 weeks
Procedure: as §1, §2

Solanum nigrum [29] = assay: Pre-emergent herbicidal action (B.2); conditions: 500 bis 2000 [g/ha], evaluated after 3 weeks
Procedure: as §1, §2

Veronica Sp. [30] = assay: Pre-emergent herbicidal action (B.2); conditions: 500 bis 2000 [g/ha], evaluated after 3 weeks
Procedure: as §1, §2

Bromus tectorum [31] = assay: Pre-emergent herbicidal action (B.2); conditions: 500 bis 2000 [g/ha], evaluated after 3 weeks
Procedure: as §1, §2

Lolium perenne [32] = assay: Pre-emergent herbicidal action (B.2); conditions: 500 bis 2000 [g/ha], evaluated after 3 weeks
Procedure: as §1, §2

In the case of `CC1CCCc2nc3c(cc21)C(=O)N1C(=O)C(C)(C(C)C)N=C31` (centres unmarked) [Verbindung 3.02, 2,7-Dimethyl-2-isopropyl-7,8,9,10-tetrahydro-3H,5H-imidazo[1',2':1,2]pyrrolo[3,4-b]chinolin-3,5-dion], the Herbizidwirkung (Alopecurus myos. [1]) is reported as “gute bis sehr gute Herbizidwirkung (Boniturnoten von 1 bis 4 (insbesondere von 1 bis 3) weisen auf eine gute bis sehr gute Herbizidwirkung hin)”, the Herbizidwirkung (Chenopodium Sp. [2]) is reported as “gute bis sehr gute Herbizidwirkung (Boniturnoten von 1 bis 4 (insbesondere von 1 bis 3) weisen auf eine gute bis sehr gute Herbizidwirkung hin)” and the Herbizidwirkung (Galium aparine [3]) is reported as “gute bis sehr gute Herbizidwirkung (Boniturnoten von 1 bis 4 (insbesondere von 1 bis 3) weisen auf eine gute bis sehr gute Herbizidwirkung hin)”. For the same molecule, the Herbizidwirkung (Avena fatua [4]) was “gute bis sehr gute Herbizidwirkung (Boniturnoten von 1 bis 4 (insbesondere von 1 bis 3) weisen auf eine gute bis sehr gute Herbizidwirkung hin)”, the Herbizidwirkung (Digitaria sang. [5]) was “gute bis sehr gute Herbizidwirkung (Boniturnoten von 1 bis 4 (insbesondere von 1 bis 3) weisen auf eine gute bis sehr gute Herbizidwirkung hin)” and the Herbizidwirkung (Xanthium Sp.) was “gute bis sehr gute Herbizidwirkung (Boniturnoten von 1 bis 4 (insbesondere von 1 bis 3) weisen auf eine gute bis sehr gute Herbizidwirkung hin)”. For the same molecule, the Herbizidwirkung (Echinochloa crus galli [6]) was “gute bis sehr gute Herbizidwirkung (Boniturnoten von 1 bis 4 (insbesondere von 1 bis 3) weisen auf eine gute bis sehr gute Herbizidwirkung hin)”, the Herbizidwirkung (Stellaria [7]) was “gute bis sehr gute Herbizidwirkung (Boniturnoten von 1 bis 4 (insbesondere von 1 bis 3) weisen auf eine gute bis sehr gute Herbizidwirkung hin)” and the Herbizidwirkung (Sorghum halep. [8]) was “gute bis sehr gute Herbizidwirkung (Boniturnoten von 1 bis 4 (insbesondere von 1 bis 3) weisen auf eine gute bis sehr gute Herbizidwirkung hin)”. For the same molecule, the Herbizidwirkung (Sinapis [9]) was “gute bis sehr gute Herbizidwirkung (Boniturnoten von 1 bis 4 (insbesondere von 1 bis 3) weisen auf eine gute bis sehr gute Herbizidwirkung hin)”, the Herbizidwirkung (Abutilon [10]) was “gute bis sehr gute Herbizidwirkung (Boniturnoten von 1 bis 4 (insbesondere von 1 bis 3) weisen auf eine gute bis sehr gute Herbizidwirkung hin)” and the Herbizidwirkung (Amaranthus ret. [11]) was “gute bis sehr gute Herbizidwirkung (Boniturnoten von 1 bis 4 (insbesondere von 1 bis 3) weisen auf eine gute bis sehr gute Herbizidwirkung hin)”. For the same molecule, the Herbizidwirkung (Chrysanthe. leuc. [12]) was “gute bis sehr gute Herbizidwirkung (Boniturnoten von 1 bis 4 (insbesondere von 1 bis 3) weisen auf eine gute bis sehr gute Herbizidwirkung hin)”, the Herbizidwirkung (Solanum nigrum [13]) was “gute bis sehr gute Herbizidwirkung (Boniturnoten von 1 bis 4 (insbesondere von 1 bis 3) weisen auf eine gute bis sehr gute Herbizidwirkung hin)” and the Herbizidwirkung (Veronica Sp. [14]) was “gute bis sehr gute Herbizidwirkung (Boniturnoten von 1 bis 4 (insbesondere von 1 bis 3) weisen auf eine gute bis sehr gute Herbizidwirkung hin)”. The Herbizidwirkung (Bromus tectorum [15]) was “gute bis sehr gute Herbizidwirkung (Boniturnoten von 1 bis 4 (insbesondere von 1 bis 3) weisen auf eine gute bis sehr gute Herbizidwirkung hin)”, the Herbizidwirkung (Lolium perenne [16]) was “gute bis sehr gute Herbizidwirkung (Boniturnoten von 1 bis 4 (insbesondere von 1 bis 3) weisen auf eine gute bis sehr gute Herbizidwirkung hin)” and the “"pre-post-Selektivität" bei Untersaaten in Mais” value (Untersaaten in Mais) was “ausgeprägter "pre-post-Selektivität"”. For the same molecule, the Herbizidwirkung (Alopecurus myos. [17]) was “gute bis sehr gute Herbizidwirkung (Boniturnoten von 1 bis 4 (insbesondere von 1 bis 3) weisen auf eine gute bis sehr gute Herbizidwirkung hin)”, the Herbizidwirkung (Chenopodium Sp. [18]) was “gute bis sehr gute Herbizidwirkung (Boniturnoten von 1 bis 4 (insbesondere von 1 bis 3) weisen auf eine gute bis sehr gute Herbizidwirkung hin)” and the Herbizidwirkung (Galium aparine [19]) was “gute bis sehr gute Herbizidwirkung (Boniturnoten von 1 bis 4 (insbesondere von 1 bis 3) weisen auf eine gute bis sehr gute Herbizidwirkung hin)”. For the same molecule, the Herbizidwirkung (Ipomoea) was “gute bis sehr gute Herbizidwirkung (Boniturnoten von 1 bis 4 (insbesondere von 1 bis 3) weisen auf eine gute bis sehr gute Herbizidwirkung hin)”, the Herbizidwirkung (Avena fatua [20]) was “gute bis sehr gute Herbizidwirkung (Boniturnoten von 1 bis 4 (insbesondere von 1 bis 3) weisen auf eine gute bis sehr gute Herbizidwirkung hin)” and the Herbizidwirkung (Digitaria sang. [21]) was “gute bis sehr gute Herbizidwirkung (Boniturnoten von 1 bis 4 (insbesondere von 1 bis 3) weisen auf eine gute bis sehr gute Herbizidwirkung hin)”. For the same molecule, the Herbizidwirkung (Echinochloa crus galli [22]) was “gute bis sehr gute Herbizidwirkung (Boniturnoten von 1 bis 4 (insbesondere von 1 bis 3) weisen auf eine gute bis sehr gute Herbizidwirkung hin)”, the Herbizidwirkung (Stellaria [23]) was “gute bis sehr gute Herbizidwirkung (Boniturnoten von 1 bis 4 (insbesondere von 1 bis 3) weisen auf eine gute bis sehr gute Herbizidwirkung hin)” and the Herbizidwirkung (Sorghum halep. [24]) was “gute bis sehr gute Herbizidwirkung (Boniturnoten von 1 bis 4 (insbesondere von 1 bis 3) weisen auf eine gute bis sehr gute Herbizidwirkung hin)”. The Herbizidwirkung (Sinapis [25]) was “gute bis sehr gute Herbizidwirkung (Boniturnoten von 1 bis 4 (insbesondere von 1 bis 3) weisen auf eine gute bis sehr gute Herbizidwirkung hin)”, the Herbizidwirkung (Abutilon [26]) was “gute bis sehr gute Herbizidwirkung (Boniturnoten von 1 bis 4 (insbesondere von 1 bis 3) weisen auf eine gute bis sehr gute Herbizidwirkung hin)” and the Herbizidwirkung (Amaranthus ret. [27]) was “gute bis sehr gute Herbizidwirkung (Boniturnoten von 1 bis 4 (insbesondere von 1 bis 3) weisen auf eine gute bis sehr gute Herbizidwirkung hin)”. For the same molecule, the Herbizidwirkung (Chrysanthe. leuc. [28]) was “gute bis sehr gute Herbizidwirkung (Boniturnoten von 1 bis 4 (insbesondere von 1 bis 3) weisen auf eine gute bis sehr gute Herbizidwirkung hin)”, the Herbizidwirkung (Solanum nigrum [29]) was “gute bis sehr gute Herbizidwirkung (Boniturnoten von 1 bis 4 (insbesondere von 1 bis 3) weisen auf eine gute bis sehr gute Herbizidwirkung hin)” and the Herbizidwirkung (Veronica Sp. [30]) was “gute bis sehr gute Herbizidwirkung (Boniturnoten von 1 bis 4 (insbesondere von 1 bis 3) weisen auf eine gute bis sehr gute Herbizidwirkung hin)”. The Herbizidwirkung (Bromus tectorum [31]) was “gute bis sehr gute Herbizidwirkung (Boniturnoten von 1 bis 4 (insbesondere von 1 bis 3) weisen auf eine gute bis sehr gute Herbizidwirkung hin)” and the Herbizidwirkung (Lolium perenne [32]) was “gute bis sehr gute Herbizidwirkung (Boniturnoten von 1 bis 4 (insbesondere von 1 bis 3) weisen auf eine gute bis sehr gute Herbizidwirkung hin)”.
